pIC50: −log10 of the molar value. The source made the active and inactive calls. The calls are words filed in the database; no cut-off is given here.
Columns and labels:
[1] = target: T1, Polyunsaturated fatty acid 5-lipoxygenase (Homo sapiens) (UniProt P09917); experiment: Inhibition of 5-LOX in human Neutrophil assessed as enzyme remaining activity at 10 uM using arachidonic acid as substrate preincubated with compound for 15 mins followed by substrate and A23187 addition measured after 10 mins by RP-HPLC analysis relative to control; assay type: cell-based; settings: time 25.0 min
T1 sequence (whole entry): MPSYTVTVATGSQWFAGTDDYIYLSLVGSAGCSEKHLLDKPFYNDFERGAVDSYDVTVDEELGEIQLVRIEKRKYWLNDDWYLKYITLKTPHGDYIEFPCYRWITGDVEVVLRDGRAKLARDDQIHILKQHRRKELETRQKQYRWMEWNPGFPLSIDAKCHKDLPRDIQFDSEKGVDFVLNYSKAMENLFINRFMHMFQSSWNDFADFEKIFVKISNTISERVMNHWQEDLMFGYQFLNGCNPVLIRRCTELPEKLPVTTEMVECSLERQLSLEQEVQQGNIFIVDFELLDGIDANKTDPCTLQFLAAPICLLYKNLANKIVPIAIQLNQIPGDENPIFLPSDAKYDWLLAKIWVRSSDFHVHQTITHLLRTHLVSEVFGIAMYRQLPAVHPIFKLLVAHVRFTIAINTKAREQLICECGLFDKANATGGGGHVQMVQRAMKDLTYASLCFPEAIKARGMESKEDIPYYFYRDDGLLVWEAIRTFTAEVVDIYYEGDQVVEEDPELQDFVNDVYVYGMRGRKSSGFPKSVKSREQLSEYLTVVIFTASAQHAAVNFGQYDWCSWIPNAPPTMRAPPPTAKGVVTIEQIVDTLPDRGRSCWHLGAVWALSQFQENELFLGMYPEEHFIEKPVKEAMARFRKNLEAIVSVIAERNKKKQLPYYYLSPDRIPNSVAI

[2] = target: T2, Polyunsaturated fatty acid 5-lipoxygenase (Homo sapiens, UniProt P09917); experiment: Inhibition of 5-LOX in human Neutrophil preincubated with compound for 15 mins followed by A23187 addition measured after 10 mins by RP-HPLC analysis; assay type: cell-based
T2 sequence (P09917 whole entry): T1 sequence (whole entry)

[3] = target: T2, Polyunsaturated fatty acid 5-lipoxygenase; experiment: Inhibition of 5-LOX in human Neutrophil using arachidonic acid as substrate preincubated with compound for 15 mins followed by substrate and A23187 addition measured after 10 mins by RP-HPLC analysis; assay type: cell-based
Macrophage cell line [4] = experiment: Effect on lipid mediator formation in human M1-like phenotype MDM cells by measuring 5S,6R-diHETE formation at 10 uM pre-incubated for 15 mins followed by SACM stimulation and measured after 90 mins by UPLC-MS/MS analysis (reference value: 226 +/- 78 pg/ml); assay type: functional; settings: time 105 min, 1.75 h
Macrophage cell line [5] = experiment: Effect on lipid mediator formation in human M1-like phenotype MDM cells by measuring 12-HETE formation at 10 uM pre-incubated for 15 mins followed by SACM stimulation and measured after 90 mins by UPLC-MS/MS analysis (reference value: 181 +/- 39 pg/ml); assay type: functional; settings: time 105 min, 1.75 h
Macrophage cell line [6] = experiment: Effect on lipid mediator formation in human M1-like phenotype MDM cells by measuring t-LTB4 formation at 10 uM pre-incubated for 15 mins followed by SACM stimulation and measured after 90 mins by UPLC-MS/MS analysis relative to control; assay type: functional; settings: time 105 min, 1.75 h
Macrophage cell line [7] = experiment: Effect on lipid mediator formation in human M1-like phenotype MDM cells by measuring LTB4 formation at 10 uM pre-incubated for 15 mins followed by SACM stimulation and measured after 90 mins by UPLC-MS/MS analysis relative to control; assay type: functional; settings: time 105 min, 1.75 h
Macrophage cell line [8] = experiment: Effect on lipid mediator formation in human M1-like phenotype MDM cells by measuring PGF2alpha formation at 10 uM pre-incubated for 15 mins followed by SACM stimulation and measured after 90 mins by UPLC-MS/MS analysis relative to control; assay type: functional; settings: time 105 min, 1.75 h
Macrophage cell line [9] = experiment: Effect on lipid mediator formation in human M1-like phenotype MDM cells by measuring 12-HEPE formation at 10 uM pre-incubated for 15 mins followed by SACM stimulation and measured after 90 mins by UPLC-MS/MS analysis relative to control; assay type: functional; settings: time 105 min, 1.75 h
Macrophage cell line [10] = experiment: Effect on lipid mediator formation in human M2-like phenotype MDM cells by measuring PDX1 formation at 10 uM pre-incubated for 15 mins followed by SACM stimulation and measured after 90 mins by UPLC-MS/MS analysis (reference value: 13 +/- 3 pg/ml); assay type: functional; settings: time 105 min, 1.75 h
Macrophage cell line [11] = experiment: Effect on lipid mediator formation in human M2-like phenotype MDM cells by measuring RvD5 formation at 10 uM pre-incubated for 15 mins followed by SACM stimulation and measured after 90 mins by UPLC-MS/MS analysis (reference value: 344 +/- 92 pg/ml); assay type: functional; settings: time 105 min, 1.75 h
Macrophage cell line [12] = experiment: Effect on lipid mediator formation in human M2-like phenotype MDM cells by measuring RvD1 formation at 10 uM pre-incubated for 15 mins followed by SACM stimulation and measured after 90 mins by UPLC-MS/MS analysis (reference value: 5 +/- 2 pg/ml); assay type: functional; settings: time 105 min, 1.75 h
Macrophage cell line [13] = experiment: Effect on lipid mediator formation in human M2-like phenotype MDM cells by measuring RvD2 formation at 10 uM pre-incubated for 15 mins followed by SACM stimulation and measured after 90 mins by UPLC-MS/MS analysis (reference value: 6 +/- 1 pg/ml); assay type: functional; settings: time 105 min, 1.75 h
Macrophage cell line [14] = experiment: Effect on lipid mediator formation in human M2-like phenotype MDM cells by measuring 4-HDHA formation at 10 uM pre-incubated for 15 mins followed by SACM stimulation and measured after 90 mins by UPLC-MS/MS analysis relative to control; assay type: functional; settings: time 105 min, 1.75 h
Macrophage cell line [15] = experiment: Effect on lipid mediator formation in human M2-like phenotype MDM cells by measuring PDX1 formation at 10 uM pre-incubated for 15 mins followed by SACM stimulation and measured after 90 mins by UPLC-MS/MS analysis relative to control; assay type: functional; settings: time 105 min, 1.75 h
Macrophage cell line [16] = experiment: Effect on lipid mediator formation in human M2-like phenotype MDM cells by measuring MaR1 formation at 10 uM pre-incubated for 15 mins followed by SACM stimulation and measured after 90 mins by UPLC-MS/MS analysis relative to control; assay type: functional; settings: time 105 min, 1.75 h
Macrophage cell line [17] = experiment: Effect on lipid mediator formation in human M2-like phenotype MDM cells by measuring EPA formation at 10 uM pre-incubated for 15 mins followed by SACM stimulation and measured after 90 mins by UPLC-MS/MS analysis relative to control; assay type: functional; settings: time 105 min, 1.75 h
[18] = target: T3, Prostaglandin E synthase (Homo sapiens) (UniProt O14684); experiment: Inhibition of human mPGES-1 at 10 uM relative to control
T3 sequence (whole entry): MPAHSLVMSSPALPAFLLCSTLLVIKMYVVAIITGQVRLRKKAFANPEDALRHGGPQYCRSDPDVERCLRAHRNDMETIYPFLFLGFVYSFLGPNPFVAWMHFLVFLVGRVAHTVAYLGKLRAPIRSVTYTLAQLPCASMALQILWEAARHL

Neutrophil [19] = experiment: Inhibition of ROS production in PMA-induced human Neutrophil cells at 1 uM incubated for 10 mins by DCFH-DA dye based fluorometric assay; assay type: functional, cell-based
Neutrophil [20] = experiment: Inhibition of ROS production in PMA-induced human Neutrophil cells at 10 uM incubated for 10 mins by DCFH-DA dye based fluorometric assay; assay type: functional, cell-based

| SMILES | Activity [1] | pIC50 [2] | pIC50 [3] | Activity (Macrophage cell line [4]) | Activity (Macrophage cell line [5]) | Activity (Macrophage cell line [6]) | Activity (Macrophage cell line [7]) | Activity (Macrophage cell line [8]) | Activity (Macrophage cell line [9]) | Activity (Macrophage cell line [10]) | Activity (Macrophage cell line [11]) | Activity (Macrophage cell line [12]) | Activity (Macrophage cell line [13]) | Activity (Macrophage cell line [14]) | Activity (Macrophage cell line [15]) | Activity (Macrophage cell line [16]) | Activity (Macrophage cell line [17]) | inhibition [18] | inhibition (Neutrophil [19]) | inhibition (Neutrophil [20]) |
| --- | --- | --- | --- | --- | --- | --- | --- | --- | --- | --- | --- | --- | --- | --- | --- | --- | --- | --- | --- | --- |
| COc1ccc(C2=C/C(=C/c3ccc(O)cc3O)C(=O)O2)cc1 | 18.6% | 5.32 | 6.05 | 12 pg/mL | 157 pg/mL | 8% | 8% | 89% | 92% | 18 pg/mL | 575 pg/mL | 6 pg/mL | 6 pg/mL | 85% | 144% | 189% | 103% | inactive | inactive | inactive |
| Oc1ccc(CCC2CCC(c3ccc(O)cc3)CO2)cc1 (stereo not given) | 24.3% | 5.96 | 5.68 | 11 pg/mL | 158 pg/mL | 8% | 6% | 70% | 90% | 15 pg/mL | 361 pg/mL | 4 pg/mL | 5 pg/mL | 100% | 116% | 106% | 119% | inactive | inactive | inactive |

From ChEMBL document CHEMBL5528002, “Identification of selective 5-LOX and FLAP inhibitors as novel anti-inflammatory agents by ligand-based virtual screening” (Eur J Med Chem, 2024)
